Common to all, as to format: functional
The species named for experiment [1] is Oryctolagus cuniculus. The experiment can be described thus: (§1) Alpha-1-adrenergic potency measured in the isolated rabbit ear artery.
The species entered for experiment [2] is Oryctolagus cuniculus. The experiment is described as §1. This is another data set of the same source.
Experiment [3] relates to Oryctolagus cuniculus. The experiment in a line: Blockade of the constrictor response to exogenously administered L-norepinephrine.

`COc1ccc(SC)c2c1CC(N)CC2` (centres undefined): the EC50 was found to be 60 nM in the experiment listed under Oryctolagus cuniculus [1] and 9 nM in the experiment filed under Oryctolagus cuniculus [2].
Take `COc1cc2nc(N3CCN(C(=O)c4ccco4)CC3)nc(N)c2cc1OC` [PRAZOSIN]: in the experiment with Oryctolagus cuniculus [3], the KB is given as 2.7 nM.
On to `COC(=O)[C@@H]1[C@H]2C[C@H]3c4[nH]c5ccccc5c4CCN3C[C@@H]2CC[C@@H]1O` [YOHIMBINE], for which the KB with Oryctolagus cuniculus [3] amounted to 4000 nM.

A word on the EC50: it is the concentration that produces a half-maximal response. A high value points to weaker potency.

The record behind these values is ChEMBL document CHEMBL1122277, “l-1,2,3,4-Tetrahydro-8-methoxy-5-(methylthio)-2-naphthalenamine: a potent and selective agonist at alpha 1-adrenoceptors” (J Med Chem, 1983).
